Data reported in article PMC11045757, “Group 3 medulloblastoma transcriptional networks collapse under domain specific EP300/CBP inhibition” (Nature Communications, 2024).

Tested on: 460 barcoded cancer cell lines
Assay: PRISM pooled barcoded cancer cell line growth screen, 10-point dose-response, 5 days, AUC
Format: cell-based
Set-up: scale not given here
From the text: Several small molecule inhibitors of distinct protein domains of EP300/CBP are available, though the majority target the histone acetyltransferase domain (HAT) or bromodomain (BRD)[5],[10],[21],[22]. […] We used these tools to investigate the relative contribution of the EP300/CBP BRD or HAT domain to tumor cell growth (Fig. 1a). To do so, we performed 10-point, dose-response growth assays using mixed pools of 460 barcoded cancer cell lines, over five days of treatment in vitro[33],[34]. Growth was measured using an area-under-the-curve (AUC) approach (Supplementary Table 1, Supplementary Fig. 1a). […] Given potential differences in compound penetration and solubility, and to compare the relative cell line and tumor-specific effects of these two compounds in assays performed non-simultaneously, we performed a median normalization of each dataset (Supplementary Table 2).

Work on `CO[C@H]1CC[C@H](n2c([C@@H]3CCCC(=O)N3c3ccc(F)c(F)c3)nc3cc(-c4c(C)noc4C)ccc32)CC1` [CCS1477] yielded an AUC (MG63, Osteosarcoma) of 1, an AUC (MHHNB11, Neuroblastoma) of 0.7003 and an AUC (MIAPACA2, Pancreatic Cancer) of 0.9396. The AUC (MKN1, Gastric Cancer) was 0.9606, the AUC (MKN7, Gastric Cancer) was 0.7767 and the AUC (MKN45, Gastric Cancer) was 0.856. It also gave an AUC (MOLM13, AML) of 0.3814, an AUC (MOLM16, AML) of 0.9868 and an AUC (MOLT3, T-acute leukemia) of 0.9924. It also gave an AUC (MOLT16, T-acute leukemia) of 0.8465, an AUC (MON, Rhabdoid) of 0.6598 and an AUC (NB1, Neuroblastoma) of 0.5737. The AUC (NB4, AML) was 1, the AUC (NCIH23, Lung Cancer) was 0.9771 and the AUC (NCIH28, Lung Cancer) was 0.9928. The AUC (NCIH82, Lung Cancer) was 0.997, the AUC (NCIH196, Lung Cancer) was 0.842 and the AUC (NCIH211, Lung Cancer) was 0.8687. It also gave an AUC (NCIH226, Lung Cancer) of 0.9874, an AUC (NCIH292, Lung Cancer) of 0.9319 and an AUC (NCIH322, Lung Cancer) of 0.9929. It also gave an AUC (NCIH358, Lung Cancer) of 1, an AUC (NCIH441, Lung Cancer) of 0.7826 and an AUC (NCIH460, Lung Cancer) of 0.9935. For the same compound, the AUC (NCIH520, Lung Cancer) was 0.9951, the AUC (NCIH524, Lung Cancer) was 1 and the AUC (NCIH596, Lung Cancer) was 0.9011. The AUC (NCIH647, Lung Cancer) was 0.8544, the AUC (NCIH650, Lung Cancer) was 0.6419 and the AUC (NCIH661, Lung Cancer) was 1. The AUC (NCIH747, Colon/Colorectal Cancer) was 0.9981, the AUC (NCIH841, Lung Cancer) was 0.9721 and the AUC (NCIH1048, Lung Cancer) was 1. It also gave an AUC (NCIH1299, Lung Cancer) of 0.9947, an AUC (NCIH1341, Lung Cancer) of 0.9136 and an AUC (NCIH1373, Lung Cancer) of 0.9741. For the same compound, the AUC (NCIH1437, Lung Cancer) was 0.9932, the AUC (NCIH1568, Lung Cancer) was 0.9412 and the AUC (NCIH1573, Lung Cancer) was 1. The AUC (NCIH1581, Lung Cancer) was 0.9081, the AUC (NCIH1648, Lung Cancer) was 0.7802 and the AUC (NCIH1792, Lung Cancer) was 0.8352. The AUC (NCIH1793, Lung Cancer) was 0.9609, the AUC (NCIH1838, Lung Cancer) was 0.9639 and the AUC (NCIH1930, Lung Cancer) was 0.9338. It also gave an AUC (NCIH1944, Lung Cancer) of 0.9624, an AUC (NCIH1975, Lung Cancer) of 0.9927 and an AUC (NCIH2004RT, Rhabdoid) of 1. For the same compound, the AUC (NCIH2052, Lung Cancer) was 0.9941, the AUC (NCIH2122, Lung Cancer) was 0.9334 and the AUC (NCIH2170, Lung Cancer) was 0.8755. For the same compound, the AUC (NCIH2172, Lung Cancer) was 0.8463, the AUC (NCIH2196, Lung Cancer) was 0.8725 and the AUC (NCIH2228, Lung Cancer) was 1. It also gave an AUC (NCIH2347, Lung Cancer) of 0.9989, an AUC (NCIH2444, Lung Cancer) of 1 and an AUC (NCO2, CML) of 0.9122. The AUC (NIHOVCAR3, Ovarian Cancer) was 0.9967, the AUC (NUDHL1, Lymphoma) was 0.5218 and the AUC (NUGC3, Gastric Cancer) was 0.905. It also gave an AUC (OAW42, Ovarian Cancer) of 0.9968, an AUC (OC314, Ovarian Cancer) of 0.7634 and an AUC (OC316, Ovarian Cancer) of 0.664. The AUC (OCIAML2, AML) was 0.5324, the AUC (OCIAML3, AML) was 0.8075 and the AUC (OCILY19, Lymphoma) was 0.7248. The AUC (OCILY132, T-cell lymphoma) was 0.9273, the AUC (OCIM1, AML) was 0.8977 and the AUC (OE19, Esophageal Cancer) was 0.9508. It also gave an AUC (OE21, Esophageal Cancer) of 0.9943, an AUC (ONCODG1, Ovarian Cancer) of 0.9442 and an AUC (ONS76, Medulloblastoma) of 0.6602. It also gave an AUC (OSRC2, Kidney Cancer) of 1, an AUC (OV56, Ovarian Cancer) of 1 and an AUC (OVCAR8, Ovarian Cancer) of 0.8858. For the same compound, the AUC (OVISE, Ovarian Cancer) was 0.9803, the AUC (OVK18, Ovarian Cancer) was 0.5969 and the AUC (OVKATE, Ovarian Cancer) was 0.8791. For the same compound, the AUC (OVTOKO, Ovarian Cancer) was 0.9328, the AUC (PANC0203, Pancreatic Cancer) was 0.9609 and the AUC (PANC0327, Pancreatic Cancer) was 1. The AUC (PANC0403, Pancreatic Cancer) was 0.9938, the AUC (PANC0504, Pancreatic Cancer) was 0.8732 and the AUC (PANC0813, Pancreatic Cancer) was 1. It also gave an AUC (PATU8902, Pancreatic Cancer) of 0.9744, an AUC (PC3, Prostate Cancer) of 1 and an AUC (PECAPJ15, Head and Neck Cancer) of 0.9295. The AUC (PF382, T-acute leukemia) was 0.7571, the AUC (PK1, Pancreatic Cancer) was 0.9937 and the AUC (PK59, Pancreatic Cancer) was 1. The AUC (PSN1, Pancreatic Cancer) was 0.7783, the AUC (RCM1, Colon/Colorectal Cancer) was 0.9586 and the AUC (RD, Rhabdomyosarcoma) was 0.8954. It also gave an AUC (RDES, Ewing Sarcoma) of 0.5629, an AUC (RERFLCAI, Lung Cancer) of 0.937 and an AUC (RERFLCKJ, Lung Cancer) of 0.8827. It also gave an AUC (RH4, Rhabdomyosarcoma) of 0.8163, an AUC (RH28, Rhabdomyosarcoma) of 0.8877 and an AUC (RH36, Rhabdomyosarcoma) of 0.9558. For the same compound, the AUC (RHJT, Rhabdomyosarcoma) was 0.8764, the AUC (RI1, B-cell Lymphoma) was 0.7034 and the AUC (RL952, Endometrial/Uterine Cancer) was 0.9936. The AUC (RL, B-cell Lymphoma) was 0.8905, the AUC (RPMI8402, T-acute leukemia) was 0.8153 and the AUC (RT4, Bladder Cancer) was 0.9721. It also gave an AUC (RVH421, Melanoma) of 0.975, an AUC (S117, Thyroid Sarcoma) of 0.8697 and an AUC (SAOS2, Osteosarcoma) of 0.6766. The AUC (SCABER, Bladder Cancer) was 0.9263, the AUC (SCC9, Head and Neck Cancer) was 0.7896 and the AUC (SCC25, Head and Neck Cancer) was 0.9849. For the same compound, the AUC (SCLC21H, Lung Cancer) was 0.8733 and the AUC (SEM, B-cell Leukemia) was 0.851.
